pIC50, pKi: −log10 of the molar value.
What was measured:
EP3 receptor [1] = molecular target: T1, EP3 receptor (Homo sapiens, UniProt P43115); assay: CHO cell cAMP assay (forskolin and sulprostone stimulated, HTRF); assay type: cell-based; details: CHO cells; sulprostone 700 nM (EC80) and FSK 2 μM (EC70), 37° C. for 30 minutes; read-out: CHO_cAMP IC50
T1 construct: purchased Millipore HTS092M
T1 sequence (P43115 1-390): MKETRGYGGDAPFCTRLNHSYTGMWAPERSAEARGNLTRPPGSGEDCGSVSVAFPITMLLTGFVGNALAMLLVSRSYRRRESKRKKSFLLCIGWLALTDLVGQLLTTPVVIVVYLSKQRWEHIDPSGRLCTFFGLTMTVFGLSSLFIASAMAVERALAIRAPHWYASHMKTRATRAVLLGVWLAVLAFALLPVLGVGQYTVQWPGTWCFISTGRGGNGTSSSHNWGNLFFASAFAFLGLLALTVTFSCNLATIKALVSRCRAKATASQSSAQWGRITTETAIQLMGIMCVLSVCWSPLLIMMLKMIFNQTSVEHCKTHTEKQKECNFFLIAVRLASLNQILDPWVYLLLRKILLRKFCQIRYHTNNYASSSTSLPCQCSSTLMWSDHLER

EP3 receptor [2] = molecular target: T1, EP3 receptor; assay: [3H]-PGE2 binding assay (EP3 competition binding); details: read-out: [3H]-PGE2 Binding Ki
How it was run: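 Scintillation-bead competition binding with EP3 membranes (2 μg/well), 2 nM [3H]-PGE2, 0.1% DMSO, in 50 mM Tris, 10 mM MgCl2, 1 mM EDTA, pH 7.4.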

pIC50 (EP3 receptor [1]) | pKi (EP3 receptor [2]) | Compound
6.49 | 7.82 | CC(C)C(C(=O)NCCOCCN(C)C)c1ccc(-c2ccc3cccc(F)c3c2)[nH]c1=O (stereo not drawn) [compound 233, N-(2-(2-(dimethylamino)ethoxy)ethyl)-2-(6-(8-fluoronaphthalen-2-yl)-2-oxo-1,2-dihydropyridin-3-yl)-3-methylbutanamide]
9.00 | 8.52 | CC(C)C(C(=O)NC1CCSCC1)c1ccc(-c2ccc3cccc(F)c3c2)[nH]c1=O (stereo not drawn) [compound 183, 2-(6-(8-fluoronaphthalen-2-yl)-2-oxo-1,2-dihydropyridin-3-yl)-3-methyl-N-(tetrahydro-2H-thiopyran-4-yl)butanamide]
7.70 | 8.05 | CCn1ncc2c(F)cc(-c3ccc(C(CC)(CC)c4nnco4)c(=O)[nH]3)cc21 [Compound #42, 3-(3-(1,3,4-oxadiazol-2-yl)pentan-3-yl)-6-(1-ethyl-4-fluoro-1H-indazol-6-yl)pyridin-2(1H)-one]
6.86 | 7.64 | Cc1cc(C(c2ncc[nH]2)C(C)C)c(=O)[nH]c1-c1ccc2cccc(F)c2c1 (stereo not drawn) [compound 82, 3-(1-(1H-imidazol-2-yl)-2-methylpropyl)-6-(8-fluoronaphthalen-2-yl)-5-methylpyridin-2(1H)-one]
7.64 | 8.70 | CONC(=O)CC(c1ccc(-c2ccc3cccc(F)c3c2)[nH]c1=O)C(C)C (stereo not drawn) [compound 257, 3-(6-(8-fluoronaphthalen-2-yl)-2-oxo-1,2-dihydropyridin-3-yl)-N-methoxy-4-methylpentanamide]
6.50 | 7.51 | N#CC1(OC(N)=O)CCCC(c2ccc(-c3ccc4ccccc4c3)[nH]c2=O)C1 (stereo not drawn) [compound 185, 1-cyano-3-(6-(naphthalen-2-yl)-2-oxo-1,2-dihydropyridin-3-yl)cyclohexyl carbamate]
6.20 | 7.39 | CC(C)C(C(=O)NC1CN(C)C1)c1ccc(-c2ccc3cccc(F)c3c2)[nH]c1=O (stereo not drawn) [compound 182, 2-(6-(8-fluoronaphthalen-2-yl)-2-oxo-1,2-dihydropyridin-3-yl)-3-methyl-N-(1-methylazetidin-3-yl)butanamide]
7.70 | 8.30 | O=C1NC(=O)[C@]2(CCC[C@H](c3ccc(-c4ccc5ccccc5c4)[nH]c3=O)C2)N1 (racemic) [compound 191, 7-(6-(naphthalen-2-yl)-2-oxo-1,2-dihydropyridin-3-yl)-1,3-diazaspiro[4.5]decane-2,4-dione]
5.37 | 6.49 | CC1(c2ccc(-c3ccc4ccccc4c3)[nH]c2=O)N=CNC1=O (stereo not drawn) [compound 222, 3-(4-methyl-5-oxo-4,5-dihydro-1H-imidazol-4-yl)-6-(naphthalen-2-yl)-1,2-dihydropyridin-2-one]
6.92 | 7.82 | O=C1NC(=O)C2(CCCC(c3ccc(-c4ccc5ccccc5c4)[nH]c3=O)C2)O1 (stereo not drawn) [compound 188, anti-7-(6-(naphthalen-2-yl)-2-oxo-1,2-dihydropyridin-3-yl)-1-oxa-3-azaspiro[4.5]decane-2,4-dione]
7.28 | 8.30 | CC(C)C(CC(N)=O)c1ccc(-c2ccc3ccccc3c2)[nH]c1=O (stereo not drawn) [compound 249, 4-methyl-3-(6-(naphthalen-2-yl)-2-oxo-1,2-dihydropyridin-3-yl)pentanamide]
7.66 | 8.52 | CCn1ncc2c(F)cc(-c3ccc(C(/C=C4\CCNC4=O)(CC)CC)c(=O)[nH]3)cc21 [compound 13, (E)-6-(1-ethyl-4-fluoro-1H-indazol-6-yl)-3-(3-((2-oxopyrrolidin-3-ylidene)methyl)pentan-3-yl)pyridin-2(1H)-one]
5.72 | 6.94 | CC1(c2ccc(-c3ccc4ccccc4c3)[nH]c2=O)CNC(NS(C)(=O)=O)=N1 (stereo not drawn) [compound 290, N-[4-methyl-4-[6-(naphthalen-2-yl)-2-oxo-1,2-dihydropyridin-3-yl]-4,5-dihydro-1H-imidazol-2-yl]methanesulfonamide]
5.55 | 7.40 | CS(=O)(=O)N1CCC(c2ccc(-c3ccc4ccccc4c3)[nH]c2=O)CC1 [compound 186, 3-(1-(methylsulfonyl)piperidin-4-yl)-6-(naphthalen-2-yl)pyridin-2(1H)-one]
6.13 | 6.51 | CC(C)C(/C=C1\OC(=O)NC1=O)c1ccc(-c2ccc3cccc(C(F)(F)F)c3c2)[nH]c1=O (stereo not drawn) [compound 143, 5-(3-methyl-2-(2-oxo-6-(8-(trifluoromethyl)naphthalen-2-yl)-1,2-dihydropyridin-3-yl)butylidene)oxazolidine-2,4-dione]
5.79 | 6.90 | CC(C)C(C)(C(N)=O)c1ccc(-c2ccc3ccccc3c2)[nH]c1=O (stereo not drawn) [compound 232, 2,3-dimethyl-2-(6-(naphthalen-2-yl)-2-oxo-1,2-dihydropyridin-3-yl)butanamide]
6.17 | 7.12 | CCOC(=O)C(C1=CCCCC1)c1ccc(-c2ccc3ccccc3c2)[nH]c1=O (stereo not drawn) [Compound #280, ethyl 2-(cyclohex-1-en-1-yl)-2-(6-(naphthalen-2-yl)-2-oxo-1,2-dihydropyridin-3-yl)acetate]
6.62 | 7.55 | CC(C)C(CC(=O)NCCN(C)C)c1ccc(-c2ccc3cccc(F)c3c2)[nH]c1=O (stereo not drawn) [compound 259, N-(2-(dimethylamino)ethyl)-3-(6-(8-fluoronaphthalen-2-yl)-2-oxo-1,2-dihydropyridin-3-yl)-4-methylpentanamide]
6.23 | 6.43 | CCN1CCOc2ccc(-c3ccc(C(c4noc(=O)[nH]4)C(C)C)c(=O)[nH]3)cc21 (stereo not drawn) [Compound #278, 3-(1-(6-(4-ethyl-3,4-dihydro-2H-benzo[b][1,4]oxazin-6-yl)-2-oxo-1,2-dihydropyridin-3-yl)-2-methylpropyl)-1,2,4-oxadiazol-5(4H)-one]
5.26 | 6.20 | CCn1cnc2c(F)c(-c3ccc(C(C=C4OC(=O)NC4=O)C(C)C)c(=O)[nH]3)ccc21 (stereo not drawn) [compound 90, 5-(2-(6-(1-ethyl-4-fluoro-1H-benzo[d]imidazol-5-yl)-2-oxo-1,2-dihydropyridin-3-yl)-3-methylbutyli-dene)oxazolidine-2,4-dione]
7.22 | 7.80 | CC(C)C(CC1OC(=O)NC1=O)c1ccc(-c2ccc3cccc(F)c3c2)[nH]c1=O (stereo not drawn) [compound 77]
7.06 | 7.41 | CC(C)(CC1OC(=O)NC1=O)c1ccc(-c2ccc3cccc(F)c3c2)[nH]c1=O (stereo not drawn) [compound 1, 5-(2-(6-(8-fluoronaphthalen-2-yl)-2-oxo-1,2-dihydropyridin-3-yl)-2-methylpropyl) oxazolidine-2,4-dione]
6.89 | 7.59 | CCn1ncc2c(F)cc(-c3ccc(C(C(C)C)N4CCS(=O)(=O)CC4)c(=O)[nH]3)cc21 (stereo not drawn) [Compound #168, 3-(1-(1,1-dioxidothiomorpholino)-2-methylpropyl)-6-(1-ethyl-4-fluoro-1H-indazol-6-yl)pyridin-2(1H)-one]
6.04 | 6.94 | CCn1cc2c(C)cc(-c3ccc(C(CC4OC(=O)NC4=O)C(C)C)c(=O)[nH]3)cc2n1 (stereo not drawn) [compound 86, 5-(2-(6-(2-ethyl-4-methyl-2H-indazol-6-yl)-2-oxo-1,2-dihydropyridin-3-yl)-3-methylbutyl)oxazolidine-2,4-dione]
6.64 | 7.70 | CCn1ncc2c(F)cc(-c3ccc(C(CC)(CC)CC4OC(=O)NC4=O)c(=O)[nH]3)cc21 (stereo not drawn) [compound 56, 5-(2-ethyl-2-(6-(1-ethyl-4-fluoro-1H-indazol-6-yl)-2-oxo-1,2-dihydropyridin-3-yl)butyl)oxazolidine-2,4-dione]
< 4.70 | < 5.00 | CC(C)S(=O)(=O)N1CCC(c2ccc(-c3ccc4cc(F)ccc4c3)[nH]c2=O)CC1 [compound 199, 6-(6-fluoronaphthalen-2-yl)-3-(1-(isopropylsulfonyl)piperidin-4-yl)pyridin-2(1H)-one]
5.45 | 6.30 | CC1=NC(C)(c2ccc(-c3ccc4ccccc4c3)[nH]c2=O)C(=O)N1 (stereo not drawn) [compound 223, 3-(2,4-dimethyl-5-oxo-4,5-dihydro-1H-imidazol-4-yl)-6-(naphthalen-2-yl)-1,2-dihydropyridin-2-one]
6.68 | 7.34 | CC(C)C(Cc1ccc(-c2ccc3cccc(F)c3c2)[nH]c1=O)C1OC(=O)NC1=O (stereo not drawn) [Compound #308, 5-(1-(6-(8-fluoronaphthalen-2-yl)-2-oxo-1,2-dihydropyridin-3-yl)-3-methylbutan-2-yl)oxazolidine-2,4-dione]
6.47 | 6.97 | CC(C)C1(Cc2ccc(-c3ccc4cccc(F)c4c3)[nH]c2=O)NC(=O)NC1=O (stereo not drawn) [compound 263, 5-((6-(8-fluoronaphthalen-2-yl)-2-oxo-1,2-dihydropyridin-3-yl)methyl)-5-isopropylimidazolidine-2,4-dione]
6.55 | 6.82 | CC(C)C1(Cc2ccc(-c3ccc4cccc(F)c4c3)[nH]c2=O)OC(=O)NC1=O (stereo not drawn) [Compound #262, 5-((6-(8-fluoronaphthalen-2-yl)-2-oxo-1,2-dihydropyridin-3-yl)methyl)-5-isopropyloxazolidine-2,4-dione]

From patent US10336701B2, “Pyridin-2-one derivatives of formula (II) useful as EP3 receptor antagonists” (Janssen Pharmaceutica NV, priority 2017, dated 2019)
